# Reference: patent publication US10793561B2, “1,8-naphthyridinone compounds and uses thereof” (NUVATION BIO INC., priority 2017, dated 2020)
# Tests used:
# adenosine A1 receptor = adenosine A1 receptor (Homo sapiens (Human), UniProt P30542); test: Radioligand binding competition assay, adenosine A1 receptor (CHO-K1-A1 cell membranes); settings: 300 nM compound
# Method: (§1) Binding of selected compounds to the adenosine A1, A2A, A2B, and A3 receptors was tested using a binding competition assay.
# (§2) The general protocol for the radioligand binding competition assay was as follows. Competition binding was performed in duplicate in the wells of a 96 well plate (Master Block, Greiner, 786201) containing binding buffer (optimized for each receptor), membrane extracts (amount of protein/well optimized for each receptor), radiotracer (final concentration optimized for each receptor), and test compound. Nonspecific binding was determined by co-incubation with 200-fold excess of cold competitor. The samples were incubated in a final volume of 0.1 mL at 25° C. for 60 minutes and then filtered over filter plates. Filters were washed six times with 0.5 mL of ice-cold washing buffer (optimized for each receptor) and 50 μL of Microscint 20 (Packard) were added on each filter. The filter plates were sealed, incubated 15 min on an orbital shaker and scintillation counted with a TopCount for 30 sec/filter.
# For the adenosine A1 radioligand binding competition assay, a similar procedure was used except that the following reagents were used: CHO-K1-A1 cell membranes; binding buffer comprising HEPES 25 mM pH 7.4, MgCl2 5 mM, CaCl2 1 mM, NaCl 100 mM, saponin 10 µg/mL; wash buffer comprising HEPES 25 mM pH 7.4, MgCl2 5 mM, CaCl2 1 mM, NaCl 100 mM; Unifilter GF/B—treated for 2 h with 0.5% PEI was the filter; and 1.6 nM of ^3H-DPCPX was the tracer.
# (§3) CHO-K1-A3 cell membranes, 1.5 μg/well; a binding buffer comprising HEPES 25 mM pH 7.4, MgCl2 5 mM, CaCl2 1 mM, 0.5% BSA; a wash buffer comprising HEPES 25 mM pH 7.4, MgCl2 5 mM, CaCl2 1 mM; a Unifilter GF/C—treated for 2 h with 0.5% BS; and 0.4 nM of ^125I-AB-MECA as the tracer. The results of the binding assay are shown in Table B1-1 and are shown as percent residual binding at a given concentration. Percent of residual binding means binding of a compound in the presence of competitor normalized to the amount of binding in the absence of competitor. […] For example, compound 1 strongly bound to A2A (30% residual binding at a concentration of 100 nM), A1 (−3% residual binding at 300 nM) and A2B, (−9% residual binding at 300 nM) but weakly bound to A3 (96% residual binding at 300 nM).
# adenosine A2A receptor [1] = target: T1, adenosine A2A receptor (Homo sapiens (Human), UniProt P29274); test: Radioligand binding competition assay, adenosine A2A receptor; settings: for A2A radioligand binding competition assay % residual binding @ 100 nM: 100 nM compound; for A2A radioligand binding competition assay % residual binding @ 300 nM: 300 nM compound; for A2A radioligand binding competition assay % residual binding @ 1000 nM: 1000 nM compound; for A2A radioligand binding competition assay % residual binding @ 3000 nM / inhibition at 3 µM: 3000 nM compound; for inhibition at 3 µM: read-out: A2a binding % inh @ 3000 nM
# T1 sequence (P29274 whole entry): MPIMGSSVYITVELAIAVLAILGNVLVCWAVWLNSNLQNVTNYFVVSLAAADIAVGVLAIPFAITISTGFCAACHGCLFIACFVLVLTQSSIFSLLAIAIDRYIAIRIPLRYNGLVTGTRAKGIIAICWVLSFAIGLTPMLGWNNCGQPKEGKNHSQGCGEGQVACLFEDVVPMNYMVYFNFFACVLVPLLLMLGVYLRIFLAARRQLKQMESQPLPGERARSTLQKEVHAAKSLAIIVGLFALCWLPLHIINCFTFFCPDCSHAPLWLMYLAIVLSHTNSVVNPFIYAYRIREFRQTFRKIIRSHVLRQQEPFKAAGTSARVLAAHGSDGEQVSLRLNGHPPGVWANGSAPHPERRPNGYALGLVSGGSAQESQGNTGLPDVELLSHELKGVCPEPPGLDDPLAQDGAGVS
# Method: as §1, §2
# For the adenosine A2A receptor radioligand binding assay, the following modifications were made to the general protocol. GF/C filters (Perkin Elmer, 6005174), presoaked in 0.01% Brij for 2 h at room temperature were used. Filters were washed six times with 0.5 mL of ice-cold washing buffer (50 mM Tris pH 7.4) and 50 μL of Microscint 20 (Packard) was added in each well. The plates were then incubated for 15 min on an orbital shaker and then counted with a TopCount™ for 1 min/well.
# Another radioligand binding assay was used to evaluate the binding affinity for the adenosine A2A receptor assay was performed in duplicate in the wells of a 384 plate. Assay buffer contained DPBS 500 mM, MgCl2 0.1 mM, and 1% DMSO. Membrane-bead suspension was prepared by mixing 25.98 μL of human adenosine A2A membrane preparation (Perkin Elmer, RBHA2AM400UA) at 33.4 pg/mL, 28 μL of ADA at 20 pg/mL, and 932 μL of SPA beads at 3.33 mg/mL) and incubated the mixture for 20 min at room temperature. Mixed 20 μL of radiotracer (^3H-SCH 58261) at 15 nM to each well containing test articles at various concentrations and centrifuge the plate at 1000 rpm for 1 minute. Added 30 μL of the membrane-bead suspension to each well. Sealed the plates and incubated for 1 hr at room temperature with vigorous mixing on a plate mixer. Plates were read on Microbeta^2 (Perkin Elmer, 2450-0010).
# as §3
# adenosine A2B receptor = adenosine A2B receptor (Homo sapiens (Human), UniProt P29275); test: Radioligand binding competition assay, adenosine A2B receptor (HEK-293-A2b cell membranes); settings: 300 nM compound
# Chain of adenosine A2B receptor (P29275 whole entry): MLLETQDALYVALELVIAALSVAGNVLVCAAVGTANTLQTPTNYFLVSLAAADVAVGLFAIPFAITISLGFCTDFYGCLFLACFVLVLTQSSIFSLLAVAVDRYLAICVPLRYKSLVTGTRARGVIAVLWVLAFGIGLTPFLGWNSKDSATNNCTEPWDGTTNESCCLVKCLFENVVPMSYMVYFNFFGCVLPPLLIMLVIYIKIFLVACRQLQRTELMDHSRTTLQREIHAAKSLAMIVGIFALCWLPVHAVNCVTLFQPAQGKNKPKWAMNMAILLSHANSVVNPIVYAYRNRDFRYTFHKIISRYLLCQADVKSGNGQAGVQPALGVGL
# Method: as §1, §2
# Similarly, the following reagents were used for the adenosine A2B radioligand binding competition assay: HEK-293-A2b cell membranes, 20 μg/well, preincubated 30 min at RT with […] Adenosine Deaminase; a binding buffer comprising HEPES 10 mM pH7.4, EDTA 1 mM, 0.5% BSA; a wash buffer comprising HEPES 10 mM pH7.4, EDTA 1 mM; a Unifilter GF/C—treated for 2 h with 0.5% PEI; and 10 nM ^3H-DPCPX as the tracer.
# as §3
# adenosine A3 receptor = adenosine A3 receptor (Homo sapiens (Human), UniProt P0DMS8); test: Radioligand binding competition assay, adenosine A3 receptor (CHO-K1-A3 cell membranes); settings: 300 nM compound
# Chain of adenosine A3 receptor (P0DMS8 whole entry): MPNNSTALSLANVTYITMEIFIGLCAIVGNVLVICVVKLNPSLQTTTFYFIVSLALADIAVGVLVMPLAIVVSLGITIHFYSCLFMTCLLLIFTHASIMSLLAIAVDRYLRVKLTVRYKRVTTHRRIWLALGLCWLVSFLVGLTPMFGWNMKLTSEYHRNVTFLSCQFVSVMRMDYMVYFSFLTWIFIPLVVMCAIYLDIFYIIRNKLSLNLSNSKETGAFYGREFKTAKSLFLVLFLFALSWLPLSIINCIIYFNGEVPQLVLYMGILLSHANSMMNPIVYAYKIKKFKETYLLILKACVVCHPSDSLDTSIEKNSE
# Method: as §1, §2
# For the adenosine A3 radioligand binding competition assay, the following reagents were used:
# as §3
# adenosine A2A receptor [2] = target: T1, adenosine A2A receptor; test: cAMP assay in HEK-293 cells expressing human recombinant adenosine A2A receptor; type: cell-based; settings: for inhibition at 0.1 µM: 100 nM compound, read-out: A2a cAMP % inh @ 100 nM
# Method: The functional activity of compounds was tested using one of the two assays to detect the present of cAMP. Activation of G-protein coupled receptors (such as A2A) results in activation of adenylcyclase which converts ATP into cAMP which is used as a downstream signaling molecule. Therefore, molecules which act as GPCR (or specifically A2A receptor) antagonists cause a decrease in intracellular cAMP concentration.
# Both assays used HEK-293 cells expressing human recombinant adenosine A2A receptor were grown prior to the test in media without antibiotic. Assay 1: The cells were detached by gentle flushing with PBS-EDTA (5 mM EDTA), recovered by centrifugation and suspended in assay buffer (KRH: 5 mM KCl, 1.25 mM MgSO4, 124 mM NaCl, 25 mM HEPES, 13.3 mM Glucose, 1.25 mM KH2PO4, 1.45 mM CaCl2, 0.5 g/L BSA, supplemented with Rolipram).
# 12 μL of cells were mixed with 6 μL of the test compound at increasing concentrations and then incubated for 10 min. Thereafter 6 μL of the reference agonist was added at a final concentration corresponding to the historical EC80. The plates were then incubated for 30 min at room temperature. After addition of the lysis buffer and 1 hour incubation, cAMP concentrations were estimated, according to the manufacturer specification, with the HTRF® kit.
# Assay 2: 100 nL of test articles at 100× of final concentration were transferred to assay plate by Echo. Cells were washed twice with 5 mL of PBS […]. After aspirating the PBS and adding 1.5 mL versine, cells were incubated at 37° C. for 2-5 min. After centrifugation, 4 mL of medium was added and adjusted cell density to 5,000 cells/well with stimulation buffer. 10 μL of cells were aliquoted to the assay plate, centrifuged at 1000 rpm for 1 minute, and incubated for 60 minutes at room temperature. 5 μL 4× Eu-cAMP tracer solution and 5 μL 4× Ulight™-anti-cAMP solution were added to assay plate, followed by centrifugation and 60-minute incubation at room temperature. Plates were read on EnVision.
# Chain of adenosine A1 receptor (P30542 whole entry): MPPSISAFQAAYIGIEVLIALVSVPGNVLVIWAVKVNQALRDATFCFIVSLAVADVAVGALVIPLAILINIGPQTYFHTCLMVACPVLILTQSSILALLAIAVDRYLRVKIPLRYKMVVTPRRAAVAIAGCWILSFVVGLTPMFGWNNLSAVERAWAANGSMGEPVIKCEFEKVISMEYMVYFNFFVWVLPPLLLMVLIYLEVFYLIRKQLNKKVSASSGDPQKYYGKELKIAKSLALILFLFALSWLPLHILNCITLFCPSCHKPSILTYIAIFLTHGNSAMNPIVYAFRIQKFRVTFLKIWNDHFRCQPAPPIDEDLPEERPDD
structure (smiles),measurement,setting,value
"O=c1cc[nH]c2nc(-c3ccccc3)c(-c3ccc4ncccc4c3)cc12 [1.5, 7-phenyl-6-(quinolin-6-yl)-1,8-naphthyridin-4(1H)-one]",Radioligand binding competition assay % residual binding @ 300 nM (A1),adenosine A1 receptor,11%
same,IC50,adenosine A2A receptor [1],181 nM
same,A2A radioligand binding competition assay % residual binding @ 100 nM,adenosine A2A receptor [1],74%
same,A2A radioligand binding competition assay % residual binding @ 300 nM,adenosine A2A receptor [1],38%
same,A2A radioligand binding competition assay % residual binding @ 1000 nM,adenosine A2A receptor [1],12%
same,A2A radioligand binding competition assay % residual binding @ 3000 nM,adenosine A2A receptor [1],22%
same,Radioligand binding competition assay % residual binding @ 300 nM (A2b),adenosine A2B receptor,2%
same,Radioligand binding competition assay % residual binding @ 300 nM (A3),adenosine A3 receptor,104%
same,IC50,adenosine A2A receptor [2]; first cAMP table,23 nM
"O=c1cc[nH]c2nc(-c3ccccc3)c(-c3ccc(O)c(Cl)c3)cc12 [1.2, 6-(3-chloro-4-hydroxy-phenyl)-7-phenyl-1H-1,8-naphthyridin-4-one]",Radioligand binding competition assay % residual binding @ 300 nM (A1),adenosine A1 receptor,0%
same,A2A radioligand binding competition assay % residual binding @ 100 nM,adenosine A2A receptor [1],77%
same,A2A radioligand binding competition assay % residual binding @ 300 nM,adenosine A2A receptor [1],60%
same,Radioligand binding competition assay % residual binding @ 300 nM (A2b),adenosine A2B receptor,0%
same,Radioligand binding competition assay % residual binding @ 300 nM (A3),adenosine A3 receptor,83%
same,IC50,adenosine A2A receptor [2]; first cAMP table,22 nM
"O=c1cc[nH]c2nc(-c3ccccc3)c(-c3ccc4[nH]cnc4c3)cc12 [Compound No. 1.7, 6-(1H-benzo[d]imidazol-5-yl)-7-phenyl-1,8-naphthyridin-4(1H)-one]",Radioligand binding competition assay % residual binding @ 300 nM (A1),adenosine A1 receptor,7%
same,A2A radioligand binding competition assay % residual binding @ 100 nM,adenosine A2A receptor [1],52%
same,A2A radioligand binding competition assay % residual binding @ 300 nM,adenosine A2A receptor [1],33%
same,A2A radioligand binding competition assay % residual binding @ 1000 nM,adenosine A2A receptor [1],21%
same,A2A radioligand binding competition assay % residual binding @ 3000 nM,adenosine A2A receptor [1],18%
same,Radioligand binding competition assay % residual binding @ 300 nM (A2b),adenosine A2B receptor,0%
same,Radioligand binding competition assay % residual binding @ 300 nM (A3),adenosine A3 receptor,84%
same,inhibition at 0.1 µM,adenosine A2A receptor [2]; HEK293,81%
"O=c1ccc2cc(-c3ccc(O)c(Cl)c3)c(-c3ccccc3)nc2[nH]1 [1.1, 6-(3-chloro-4-hydroxy-phenyl)-7-phenyl-1H-1,8-naphthyridin-2-one]",Radioligand binding competition assay % residual binding @ 300 nM (A1),adenosine A1 receptor,1.6%
same,A2A radioligand binding competition assay % residual binding @ 100 nM,adenosine A2A receptor [1],83%
same,A2A radioligand binding competition assay % residual binding @ 300 nM,adenosine A2A receptor [1],54%
same,Radioligand binding competition assay % residual binding @ 300 nM (A2b),adenosine A2B receptor,17%
same,Radioligand binding competition assay % residual binding @ 300 nM (A3),adenosine A3 receptor,95%
same,IC50,adenosine A2A receptor [2]; first cAMP table,61 nM
"Cc1ccc(-c2nc3[nH]ccc(=O)c3cc2-c2ccc3ncccc3c2)o1 [Compound No. 1.25, 7-(5-methylfuran-2-yl)-6-(quinolin-6-yl)-1,8-naphthyridin-4(1H)-one]",A2A radioligand binding competition assay % residual binding @ 3000 nM,adenosine A2A receptor [1],0/ND/ND/ND %
same,IC50,adenosine A2A receptor [2]; first cAMP table,18.8 nM
"Cc1ccc(-c2nc3[nH]ccc(=O)c3cc2-c2ccc3ncsc3c2)o1 [Compound No. 1.98, 6-(benzo[d]thiazol-6-yl)-7-(5-methylfuran-2-yl)-1,8-naphthyridin-4(1H)-one]",inhibition at 3 µM,adenosine A2A receptor [1],85%
same,IC50,adenosine A2A receptor [2]; second cAMP table,17.2 nM
"Cc1cc(Cl)cc(-c2cc3ccc(=O)[nH]c3nc2-c2ccccc2)c1 [Compound No. 1.35, 6-(3-chloro-5-methylphenyl)-7-phenyl-1,8-naphthyridin-2(1H)-one]",inhibition at 3 µM,adenosine A2A receptor [1],0%
same,inhibition at 0.3 µM,"adenosine A2A receptor [2]; HEK293, 300 nM compound, read-out: A2a cAMP % inh @ 300 nM",12%
"O=c1cc[nH]c2nc(-c3ccccc3)c(-c3ccc4ccccc4c3)cc12 [Compound No. 1.16, 6-(naphthalen-2-yl)-7-phenyl-1,8-naphthyridin-4(1H)-one]",A2A radioligand binding competition assay % residual binding @ 3000 nM,adenosine A2A receptor [1],76/ND/ND/ND %
same,inhibition at 0.1 µM,adenosine A2A receptor [2]; HEK293,23%
"O=c1cc[nH]c2nc(-c3ccccc3)c(-c3ccc4ncsc4c3)cc12 [Compound No. 1.24, 6-(benzo[d]thiazol-6-yl)-7-phenyl-1,8-naphthyridin-4(1H)-one]",A2A radioligand binding competition assay % residual binding @ 3000 nM,adenosine A2A receptor [1],16/ND/ND/ND %
same,inhibition at 0.1 µM,adenosine A2A receptor [2]; HEK293,83%
"O=c1cc[nH]c2nc(-c3ccccc3)c(-c3ccc4cnccc4c3)cc12 [Compound No. 1.9, 6-(isoquinolin-6-yl)-7-phenyl-1,8-naphthyridin-4(1H)-one]",A2A radioligand binding competition assay % residual binding @ 3000 nM,adenosine A2A receptor [1],70/ND/ND/ND %
same,inhibition at 0.1 µM,adenosine A2A receptor [2]; HEK293,30%
"O=c1ccc2cc(-c3ccc4ncccc4c3)c(-c3ccccc3)nc2[nH]1 [1.4, 7-phenyl-6-(quinolin-6-yl)-1,8-naphthyridin-2(1H)-one]",A2A radioligand binding competition assay % residual binding @ 100 nM,adenosine A2A receptor [1],71%
same,A2A radioligand binding competition assay % residual binding @ 300 nM,adenosine A2A receptor [1],79%
same,A2A radioligand binding competition assay % residual binding @ 1000 nM,adenosine A2A receptor [1],17%
same,A2A radioligand binding competition assay % residual binding @ 3000 nM,adenosine A2A receptor [1],19%
same,inhibition at 0.1 µM,adenosine A2A receptor [2]; HEK293,82%
"O=c1cc[nH]c2nc(-c3ccccc3)c(-c3ccc4ocnc4c3)cc12 [Compound No. 1.21, 6-(benzo[d]oxazol-5-yl)-7-phenyl-1,8-naphthyridin-4(1H)-one]",A2A radioligand binding competition assay % residual binding @ 3000 nM,adenosine A2A receptor [1],54/ND/ND/ND %
same,inhibition at 0.1 µM,adenosine A2A receptor [2]; HEK293,45%
"Cc1cc(-c2cc3c(=O)cc[nH]c3nc2-c2ccccc2)cc2cccnc12 [Compound No. 1.23, 6-(8-methylquinolin-6-yl)-7-phenyl-1,8-naphthyridin-4(1H)-one]",A2A radioligand binding competition assay % residual binding @ 3000 nM,adenosine A2A receptor [1],22/ND/ND/ND %
same,inhibition at 0.1 µM,adenosine A2A receptor [2]; HEK293,77%
"O=c1cc[nH]c2nc(-c3ccccc3)c(-c3cc(Cl)c4ncccc4c3)cc12 [Compound No. 1.13, 6-(8-chloroquinolin-6-yl)-7-phenyl-1,8-naphthyridin-4(1H)-one]",A2A radioligand binding competition assay % residual binding @ 3000 nM,adenosine A2A receptor [1],29/ND/ND/ND %
same,IC50,adenosine A2A receptor [2]; first cAMP table,47.7 nM
